Data: ChEMBL document CHEMBL1152407, “Identification of inhibitors of checkpoint kinase 1 through template screening” (J Med Chem, 2009)

Tests used:
[1] = target: Cyclin-dependent kinase 1 (Homo sapiens) (UniProt P06493); test: Inhibition of CDK1 assessed as Rb (ser780) biotinylated peptide phosphorylation at 100 uM by DELFIA assay
[2] = Selectivity ratio of IC50 for CHK2 to IC50 for CHK1
[3] = target: Serine/threonine-protein kinase Chk2 (Homo sapiens, UniProt O96017)
Description: Inhibition of CHK2 assessed as CDC25C peptide phosphorylation by DELFIA assay

HT-29 = test: cells; conditions: Homo sapiens, HT-29, 96 h
Description: Cytotoxicity against human HT-29 cells after 96 hrs by SRB assay

[4] = target: T1, Serine/threonine-protein kinase Chk1 (Homo sapiens) (UniProt O14757); test: Inhibition of CHK1 at 250 uM by alphascreen assay
T1 sequence (whole entry): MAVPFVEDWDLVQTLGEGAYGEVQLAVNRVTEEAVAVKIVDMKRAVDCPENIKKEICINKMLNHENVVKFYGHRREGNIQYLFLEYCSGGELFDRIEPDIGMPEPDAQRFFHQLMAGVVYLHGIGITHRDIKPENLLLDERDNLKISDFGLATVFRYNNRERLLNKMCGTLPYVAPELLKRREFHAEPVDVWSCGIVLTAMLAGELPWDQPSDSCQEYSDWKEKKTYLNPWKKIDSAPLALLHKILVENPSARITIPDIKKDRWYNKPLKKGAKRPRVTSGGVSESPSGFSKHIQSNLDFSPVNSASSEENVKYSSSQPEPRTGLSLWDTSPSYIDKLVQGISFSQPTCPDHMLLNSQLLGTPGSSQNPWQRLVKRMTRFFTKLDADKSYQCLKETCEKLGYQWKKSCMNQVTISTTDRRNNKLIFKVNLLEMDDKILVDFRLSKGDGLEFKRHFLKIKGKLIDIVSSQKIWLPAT

[5] = target: T1, Serine/threonine-protein kinase Chk1 (Homo sapiens); test: Inhibition of CHK1 at 250 uM by alphascreen assay in presence of 0.01% Triton-X100
[6] = target: T1, Serine/threonine-protein kinase Chk1 (Homo sapiens); test: Inhibition of CHK1 assessed as CDC25C peptide phosphorylation at 100 uM by DELFIA assay
[7] = target: T2, Serine/threonine-protein kinase Chk1 (Homo sapiens, UniProt O14757)
T2 sequence (O14757 whole entry): T1 sequence (whole entry)
Description: Inhibition of CHK1 assessed as CDC25C peptide phosphorylation by DELFIA assay

Chain of Serine/threonine-protein kinase Chk2 (O96017 whole entry): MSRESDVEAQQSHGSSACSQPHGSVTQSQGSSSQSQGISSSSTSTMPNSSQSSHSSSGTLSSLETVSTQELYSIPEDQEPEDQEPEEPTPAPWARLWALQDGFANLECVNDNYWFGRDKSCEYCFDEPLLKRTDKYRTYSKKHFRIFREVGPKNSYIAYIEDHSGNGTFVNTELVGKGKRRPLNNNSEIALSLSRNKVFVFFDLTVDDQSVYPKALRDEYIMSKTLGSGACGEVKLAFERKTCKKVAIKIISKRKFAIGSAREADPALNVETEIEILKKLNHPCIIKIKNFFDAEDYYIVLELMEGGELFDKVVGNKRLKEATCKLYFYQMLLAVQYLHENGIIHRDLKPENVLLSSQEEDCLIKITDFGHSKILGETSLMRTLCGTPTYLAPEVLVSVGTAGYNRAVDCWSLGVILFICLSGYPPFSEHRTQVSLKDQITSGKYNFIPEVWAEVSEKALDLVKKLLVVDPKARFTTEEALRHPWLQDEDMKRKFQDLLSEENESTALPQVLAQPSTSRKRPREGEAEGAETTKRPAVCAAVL
Chain of Cyclin-dependent kinase 1 (Homo sapiens) (P06493 whole entry, looked up): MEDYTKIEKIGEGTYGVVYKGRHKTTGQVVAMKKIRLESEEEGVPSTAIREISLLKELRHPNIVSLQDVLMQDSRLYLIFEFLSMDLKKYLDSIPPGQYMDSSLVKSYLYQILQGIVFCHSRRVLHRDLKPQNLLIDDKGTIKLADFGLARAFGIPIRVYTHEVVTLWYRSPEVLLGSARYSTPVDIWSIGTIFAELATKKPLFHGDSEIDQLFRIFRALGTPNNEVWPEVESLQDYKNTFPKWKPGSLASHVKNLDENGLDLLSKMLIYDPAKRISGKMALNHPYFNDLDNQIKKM

Row | SMILES | inhibition [4] [%] | inhibition [5] [%] | inhibition [6] [%] | other results
1 | NCC1CN(c2c(Br)cnc3[nH]ncc23)CCO1 (stereo not drawn) |  |  |  | inhibition [1]: 37%; Ratio IC50 [2]: 8; IC50 [3]: 7.4 µM; GI50 (HT-29): 16 µM
2 | CCOC(=O)c1cnc2[nH]ncc2c1N1CCOC(CN)C1 (stereo not drawn) |  |  |  | inhibition [1]: 3%
3 | Fc1ccc(-c2onc3ccc(-c4cc[nH]n4)cc23)cc1 | 26.4 | 6.5 |  | 
4 | NC[C@@H]1CN(c2c(-c3ccccc3)cnc3[nH]ncc23)CCO1 |  |  |  | inhibition [1]: 43%; IC50 [3]: 5.9 µM; GI50 (HT-29): 40 µM
5 | c1nc(N2CCOCC2)c2nc[nH]c2n1 | 75.7 | 63 |  | 
6 | O=c1[nH]cnc2sc3c(c12)CCCC3 | 38.5 | 45.3 |  | 
7 | O=C(O)CC1CN(c2ncnc3[nH]cnc23)CCO1 (stereo not drawn) |  |  | 22 | 
8 | NCC1CN(c2c(-c3ccsc3)cnc3[nH]ncc23)CCO1 (stereo not drawn) |  |  |  | inhibition [1]: 48%; Ratio IC50 [2]: 8; IC50 [7]: 0.29 µM; IC50 [3]: 4.6 µM; GI50 (HT-29): 10.5 µM

The next lines start with results.

Row | inhibition [4] [%] | inhibition [5] [%] | inhibition [6] [%] | SMILES | other results
9 | 51.4 | 43.1 | 27 | CC(=O)Nc1nc2c(s1)C(=O)NCCC2 | 
10 | 41.9 | 41.5 |  | Clc1ccc2c(Nc3ccccc3)ncnc2c1 | 
11 | 40.9 | 14.2 | 0 | CCCNc1nc2ccccc2c(=O)[nH]1 | 
12 |  |  | 43 | CC(C)(C)OC(=O)NCC1CN(c2ncnc3[nH]cnc23)CCO1 (stereo not drawn) | 
13 |  |  | 12 | O=C(O)C1COCCN1c1ncnc2[nH]cnc12 (stereo not drawn) | 
14 | 50.1 | 52.8 |  | COc1cccc(CNc2ncnc3cc(OC)c(OC)cc23)c1 | 
15 | 35.7 | 33.5 | 32 | CSC1=N/C(=C\c2cccs2)C(=O)N1 | 
16 | 36.9 | 39.9 | 33 | CC(C)(C)Nc1nc(N)c(C(=O)c2ccccc2)s1 | 
